According to ChEMBL document CHEMBL1201862, “PubChem BioAssay data set” (2004):
Several values for one entry are separate records, joined by “and”; a condition that tells them apart may be missing. Identical values can stand only once.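 48-hour exposure; five concentrations; linearly interpolated endpoints. At the GI50, growth is halved.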 Activity calls are given as the source filed them. Cut-off read from the data, not from the text of the source: active = GI50 up to about 1.1 µM and inactive = higher.

Tests used:
Experiment in all cases: NCI anticancer screen, dose series, 48 h
786-0 = system: 786-0
A498 = system: A498
A549 = system: A549
ACHN = system: ACHN
BT-549 = system: BT-549
CAKI-1 = system: CAKI-1
CCRF-CEM = system: CCRF-CEM
COLO 205 = system: COLO 205
DU-145 = system: DU-145
EKVX = system: EKVX
HCC 2998 = system: HCC 2998
HCT-116 = system: HCT-116
HCT-15 = system: HCT-15
HOP-62 = system: HOP-62
HOP-92 = system: HOP-92
HT-29 = system: HT-29
IGROV-1 = system: IGROV-1
K562 = system: K562
KM12 = system: KM12
LOX IMVI = system: LOX IMVI
M14 = system: M14
MCF7 = system: MCF7
MDA-MB-231 = system: MDA-MB-231
MDA-MB-435 = system: MDA-MB-435
MDA-N = system: MDA-N
MOLT-4 = system: MOLT-4
Malme-3M = system: Malme-3M
NCI-H23 = system: NCI-H23
NCI-H460 = system: NCI-H460
NCI-H522 = system: NCI-H522
NCI/ADR-RES = system: NCI/ADR-RES
OVCAR-3 = system: OVCAR-3
OVCAR-4 = system: OVCAR-4
OVCAR-5 = system: OVCAR-5
OVCAR-8 = system: OVCAR-8
SF-268 = system: SF-268
SF-295 = system: SF-295
SF-539 = system: SF-539
SK-MEL-28 = system: SK-MEL-28
SK-MEL-5 = system: SK-MEL-5
SK-OV-3 = system: SK-OV-3
SN12C = system: SN12C
SNB-19 = system: SNB-19
SNB-75 = system: SNB-75
SR = system: SR
SW-620 = system: SW-620
T47D = system: T47D
TK-10 = system: TK-10
U-251 = system: U-251
UACC-257 = system: UACC-257
UACC-62 = system: UACC-62
UO-31 = system: UO-31
HL-60 = system: HL-60
Hs-578T = system: Hs-578T
NCI-H226 = system: NCI-H226
PC-3 = system: PC-3
RPMI-8226 = system: RPMI-8226
RXF 393 = system: RXF 393
SK-MEL-2 = system: SK-MEL-2

Structure (SMILES): COc1ccc(Nc2nc(NNC(=O)Cc3ccccc3)nc(NNC(=O)c3ccncc3)n2)cc1
- GI50 (786-0): > 10 µM (inactive)
- GI50 (A498): > 10 µM (inactive)
- GI50 (A549): > 10 µM (inactive)
- GI50 (ACHN): > 10 µM (inactive)
- GI50 (BT-549): > 10 µM (inactive)
- GI50 (CAKI-1): > 10 µM (inactive)
- GI50 (CCRF-CEM): > 10 µM (inactive)
- GI50 (COLO 205): > 10 µM (inactive)
- GI50 (DU-145): > 10 µM (inactive)
- GI50 (EKVX): 955 nM (active)
- GI50 (HCC 2998): > 10 µM (inactive)
- GI50 (HCT-116): > 10 µM (inactive)
- GI50 (HCT-15): > 10 µM
- GI50 (HOP-62): > 10 µM (inactive)
- GI50 (HOP-92): > 10 µM (inactive)
- GI50 (HT-29): > 10 µM (inactive)
- GI50 (IGROV-1): > 10 µM (inactive)
- GI50 (K562): > 10 µM (inactive)
- GI50 (KM12): > 10 µM (inactive)
- GI50 (LOX IMVI): > 10 µM (inactive)
- GI50 (M14): > 10 µM (inactive)
- GI50 (MCF7): > 10 µM (inactive)
- GI50 (MDA-MB-231): > 10 µM (inactive)
- GI50 (MDA-MB-435): > 10 µM (inactive)
- GI50 (MDA-N): > 10 µM (inactive)
- GI50 (MOLT-4): > 10 µM (inactive)
- GI50 (Malme-3M): > 10 µM (inactive)
- GI50 (NCI-H23): > 10 µM (inactive)
- GI50 (NCI-H460): > 10 µM (inactive)
- GI50 (NCI-H522): > 10 µM (inactive)
- GI50 (NCI/ADR-RES): > 10 µM (inactive)
- GI50 (OVCAR-3): > 10 µM (inactive)
- GI50 (OVCAR-4): > 10 µM (inactive)
- GI50 (OVCAR-5): > 10 µM (inactive)
- GI50 (OVCAR-8): > 10 µM (inactive)
- GI50 (SF-268): > 10 µM (inactive)
- GI50 (SF-295): > 10 µM (inactive)
- GI50 (SF-539): > 10 µM (inactive)
- GI50 (SK-MEL-28): > 10 µM (inactive)
- GI50 (SK-MEL-5): > 10 µM (inactive)
- GI50 (SK-OV-3): > 10 µM (inactive)
- GI50 (SN12C): > 10 µM (inactive)
- GI50 (SNB-19): > 10 µM (inactive)
- GI50 (SNB-75): > 10 µM (inactive)
- GI50 (SR): > 10 µM (inactive)
- GI50 (SW-620): > 10 µM (inactive)
- GI50 (T47D): > 10 µM (inactive)
- GI50 (TK-10): > 10 µM (inactive)
- GI50 (U-251): > 10 µM (inactive)
- GI50 (UACC-257): > 10 µM (inactive)
- GI50 (UACC-62): 1.95 µM (inactive)
- GI50 (UO-31): > 10 µM (inactive)

Structure (SMILES): COc1cc2c(/C=C3/C(=O)Nc4cccc(Cl)c43)c(Cl)[nH]c2cc1C
- GI50 (786-0): 1.85 µM (inactive)
- GI50 (A498): 8.67 µM (inactive)
- GI50 (A549): 2.09 µM (inactive)
- GI50 (ACHN): 2.67 µM (inactive)
- GI50 (BT-549): 1.46 µM (inactive)
- GI50 (CAKI-1): 1.86 µM (inactive)
- GI50 (CCRF-CEM): 1.56 µM (inactive)
- GI50 (COLO 205): 1.95 µM (inactive)
- GI50 (DU-145): 1.88 µM (inactive)
- GI50 (HCT-116): 1.49 µM (inactive)
- GI50 (HCT-15): 1.95 µM
- GI50 (HL-60): 1.82 µM (inactive)
- GI50 (HOP-62): 2.15 µM (inactive)
- GI50 (HOP-92): 8.17 µM (inactive)
- GI50 (HT-29): 1.94 µM (inactive)
- GI50 (Hs-578T): 1.98 µM (inactive)
- GI50 (IGROV-1): 1.59 µM (inactive)
- GI50 (K562): 1.76 µM (inactive)
- GI50 (KM12): 1.7 µM (inactive)
- GI50 (LOX IMVI): 1.8 µM (inactive)
- GI50 (M14): 2.23 µM (inactive)
- GI50 (MCF7): 2.05 µM (inactive)
- GI50 (MDA-MB-231): 1.08 µM (active)
- GI50 (MDA-MB-435): 1.57 µM (inactive)
- GI50 (MOLT-4): 0.366 µM (active)
- GI50 (NCI-H226): 1.44 µM (inactive)
- GI50 (NCI-H23): 2.51 µM (inactive)
- GI50 (NCI-H460): 1.72 µM (inactive)
- GI50 (NCI-H522): 2.32 µM (inactive)
- GI50 (NCI/ADR-RES): 1.65 µM (inactive)
- GI50 (OVCAR-3): 1.6 µM (inactive)
- GI50 (OVCAR-4): 0.078 µM (active)
- GI50 (OVCAR-5): 4.02 µM (inactive)
- GI50 (OVCAR-8): 2.54 µM (inactive)
- GI50 (PC-3): 2.68 µM (inactive)
- GI50 (RPMI-8226): 1.93 µM (inactive)
- GI50 (RXF 393): 2 µM (inactive)
- GI50 (SF-268): 3.8 µM (inactive)
- GI50 (SF-295): 1.69 µM (inactive)
- GI50 (SF-539): 1.6 µM (inactive)
- GI50 (SK-MEL-28): 1.21 µM (inactive)
- GI50 (SK-MEL-2): 3.05 µM (inactive)
- GI50 (SK-MEL-5): 3.5 µM (inactive)
- GI50 (SK-OV-3): 2.21 µM (inactive)
- GI50 (SN12C): 1.32 µM (inactive)
- GI50 (SNB-19): 2.14 µM (inactive)
- GI50 (SNB-75): 1.44 µM (inactive)
- GI50 (SR): 1.41 µM (inactive)
- GI50 (SW-620): 2.24 µM (inactive)
- GI50 (T47D): 1.43 µM (inactive)
- GI50 (TK-10): 1.06 µM (active)
- GI50 (U-251): 1.78 µM (inactive)
- GI50 (UACC-257): 2.26 µM (inactive)
- GI50 (UACC-62): 1.95 µM (inactive)
- GI50 (UO-31): 3.73 µM (inactive)

Structure (SMILES): C=CCN1C(=O)/C(=C/c2ccc(OC)cc2)N=C1SC1OC(COC(C)=O)C(OC(C)=O)C(OC(C)=O)C1OC(C)=O (configuration not stated)
- GI50 (786-0): 17.2 µM (inactive)
- GI50 (A498): 31.9 µM (inactive) and 32.4 µM (inactive)
- GI50 (A549): 34.8 µM (inactive)
- GI50 (BT-549): 27.2 µM (inactive) and 19.8 µM (inactive)
- GI50 (COLO 205): 67.8 µM (inactive) and 41.3 µM (inactive)
- GI50 (DU-145): 23.4 µM (inactive) and 45.3 µM (inactive)
- GI50 (EKVX): 28.2 µM (inactive) and 21.4 µM (inactive)
- GI50 (HCC 2998): 39.7 µM (inactive) and 64.3 µM (inactive)
- GI50 (HCT-116): 30.8 µM (inactive)
- GI50 (HCT-15): 36.4 µM and 43.7 µM
- GI50 (HOP-92): 12.7 µM (inactive) and 17.3 µM (inactive)
- GI50 (HT-29): 8.45 µM (inactive)
- GI50 (K562): 36.7 µM (inactive) and 24.5 µM (inactive)
- GI50 (M14): 39.4 µM (inactive)
- GI50 (MDA-N): 37.8 µM (inactive)
- GI50 (Malme-3M): 44.2 µM (inactive) and 57.5 µM (inactive)
- GI50 (NCI-H226): 21.6 µM (inactive) and 32.1 µM (inactive)
- GI50 (NCI-H23): 33.5 µM (inactive) and 36.9 µM (inactive)
- GI50 (NCI/ADR-RES): 30.8 µM (inactive) and 48.8 µM (inactive)
- GI50 (RPMI-8226): 32.8 µM (inactive) and 43.3 µM (inactive)
- GI50 (RXF 393): 27 µM (inactive) and 25.3 µM (inactive)
- GI50 (SK-MEL-5): 19.5 µM (inactive) and 29 µM (inactive)
- GI50 (SK-OV-3): 18.1 µM (inactive) and 34.7 µM (inactive)
- GI50 (SN12C): 29.6 µM (inactive)
- GI50 (SNB-19): 32 µM (inactive)
- GI50 (SNB-75): 19.1 µM (inactive) and 35.5 µM (inactive)
- GI50 (SR): 34.5 µM (inactive) and 25.9 µM (inactive)
- GI50 (SW-620): 60 µM (inactive) and 36.9 µM (inactive)
- GI50 (T47D): 23.8 µM (inactive)
- GI50 (UACC-257): 29.4 µM (inactive) and 20.7 µM (inactive)
